Assay [1] has as its system influenza virus. In words: microbe, parasite or virus in culture. Particulars: unidentified influenza virus, 72 h, read-out: CPE EC50, effective concentration to achieve 50% CPE inhibition, 3 days incubation, WST-8. The assay is classed as cell-based, influenza virus (MDBK or MDCK cells). For orientation: Formazan colour is commonly taken as a measure of viable cells.
Assay [2] addresses cap-dependent endonuclease (RNP fraction containing PB1•PB2•PA complex) (Influenza A virus, UniProt P15659). In words: biochemical. Conditions: RNP from A/WSN/33 virus, capped Cy3/BHQ2 30mer RNA substrate, 60 minutes at room temperature; read-out: CEN IC50.

The IC50 is the concentration that inhibits the measured activity by half.

Regarding `CC(C)CN1CC(N2CN(C3c4ccccc4CCc4ccccc43)n3ccc(=O)c(O)c3C2=O)C1` [Example 248], the EC50 in assay [1] worked out at 489 nM. Moreover, the IC50 in assay [2] was determined as 103 nM.
For `CC(C)N1CC(N2CN(C3c4ccccc4CCc4ccccc43)n3ccc(=O)c(O)c3C2=O)C1` [Example 249], in that order: 1890 nM and 151 nM.
On to `CN1CC[C@@H](N2CN(C3c4ccccc4CCc4ccccc43)n3ccc(=O)c(O)c3C2=O)C1` [Example 250], for which the EC50 in assay [1] came to 476 nM. The IC50 in assay [2] was 113 nM.
For `CS(=O)(=O)N1CC[C@@H](N2CN(C3c4ccccc4CCc4ccccc43)n3ccc(=O)c(O)c3C2=O)C1` [Example 251], in that order: 157 nM and 58 nM.
Regarding `CC(C)N1CC[C@@H](N2CN(C3c4ccccc4CCc4ccccc43)n3ccc(=O)c(O)c3C2=O)C1` [Example 252], the EC50 in assay [1] was found to be 454 nM. Moreover, in assay [2], the IC50 was 107 nM.
In the case of `CN1CCC(N2CN(C3c4ccccc4CCc4ccccc43)n3ccc(=O)c(O)c3C2=O)CC1` [Example 253], the EC50 in assay [1] was 280 nM. Besides, the IC50 in assay [2] was determined as 235 nM.
On to `O=C1c2c(O)c(=O)ccn2N(C2c3ccccc3CCc3ccccc32)CN1[C@@H]1CCN(CCO)C1` [Example 254], for which the EC50 in assay [1] came out at 564 nM. The IC50 in assay [2] came to 135 nM.
`Cc1cc(CN2CN(C3c4ccccc4CCc4ccccc43)n3ccc(=O)c(O)c3C2=O)no1` [Example 255]: the EC50 in assay [1] amounted to 319 nM. In addition, in assay [2], the IC50 was 52 nM.
Take `O=C1c2c(O)c(=O)ccn2N(C2c3ccccc3CCc3ccccc32)CN1CCCF` [Example 257]: in assay [1], the EC50 turned out to be 55 nM. In assay [2], the concentration for half-maximal inhibition (IC50) came out at 41 nM.
For `O=C1c2c(O)c(=O)ccn2N(C2c3ccccc3CCc3ccccc32)CN1CC(F)F` [Example 259], in that order: 26 nM and 66 nM.
For `CCC(COC)N1CN(C2c3ccccc3CCc3ccccc32)n2ccc(=O)c(O)c2C1=O` (centres unmarked) [Example 260], in that order: 65 nM and 91 nM.
Take `O=C1c2c(O)c(=O)ccn2N(C2c3ccccc3CCc3ccccc32)CN1Cc1ccccn1` [Example 264]: the EC50 in assay [1] turned out to be 128 nM. Also, in assay [2], the IC50 was found to be 64 nM.
Turning to `CCN1CN(C2c3ccccc3CCc3ccccc32)n2ccc(=O)c(O)c2C1=O` [Example 266], the EC50 in assay [1] worked out at 85 nM. In addition, the half-inhibitory concentration (IC50) in assay [2] was found to be 43 nM.
With `CCOCCN1CN(C2c3ccccc3CCc3ccccc32)n2ccc(=O)c(O)c2C1=O` [Example 268], in assay [1], the EC50 turned out to be 74 nM. In assay [2], the IC50 was 18 nM.
The corresponding values for `O=C1c2c(O)c(=O)ccn2N(C2c3ccccc3CCc3ccccc32)CN1Cc1nccs1` [Example 271] are 102 nM and 73 nM.
`CN1CN(C2c3ccccc3CCc3ccccc32)n2ccc(=O)c(O)c2C1=O` [Example 273]: the EC50 in assay [1] is 84 nM. Also, the IC50 in assay [2] was 16 nM.
For `O=C1c2c(O)c(=O)ccn2N(C2c3ccccc3CCc3ccccc32)CN1CCOC(F)(F)F` [Example 277], in assay [1], the EC50 was determined as 71 nM. In assay [2], the IC50 worked out at 39 nM.
Consider `COc1ccc2c(c1)CCc1ccccc1C2N1CN(C(C)C)C(=O)c2c(O)c(=O)ccn21` (centres unmarked) [Example 278], for which, in assay [1], the EC50 was determined as 74 nM. In assay [2], the IC50 worked out at 205 nM.
With `CC(C)N1CN(C2c3cc(Cl)ccc3CCc3ccc(Cl)cc32)n2ccc(=O)c(O)c2C1=O` [Example 280], in assay [1], the EC50 is 145 nM. Moreover, the IC50 in assay [2] came out at 68 nM.
With `CC(C)N1CN(C2c3cccc(F)c3CCc3c(F)cccc32)n2ccc(=O)c(O)c2C1=O` [Example 281], the EC50 in assay [1] is 18 nM. Further, the IC50 in assay [2] turned out to be 26 nM.
Regarding `CC(C)N1CN(C2c3ccccc3CCc3cc(Cl)ccc32)n2ccc(=O)c(O)c2C1=O` (centres unmarked) [Example 283], the EC50 in assay [1] came to 21 nM. The half-inhibitory concentration (IC50) in assay [2] amounted to 28 nM.
As for `CC(C)N1CN(C2c3cc(F)ccc3SCc3c(Cl)cccc32)n2ccc(=O)c(O)c2C1=O` (centres unmarked) [Example 285], in assay [1], the EC50 was 17 nM. Moreover, the IC50 in assay [2] came out at 44 nM.
With `O=C1c2c(O)c(=O)ccn2N(C2c3ccccc3CSc3ccccc32)CN1[C@@H]1CCN(CCOCc2ccccc2)C1` (some centres unmarked) [Example 286], in assay [1], the EC50 worked out at 121 nM. Further, the IC50 in assay [2] was found to be 161 nM.
On to `CN1CC[C@@H](N2CN(C3c4ccccc4CSc4ccccc43)n3ccc(=O)c(O)c3C2=O)C1` (some centres unmarked) [Example 287], for which, in assay [1], the EC50 turned out to be 268 nM. The IC50 in assay [2] was 154 nM.
With `CN1CCC(N2CN(C3c4ccccc4CSc4ccccc43)n3ccc(=O)c(O)c3C2=O)CC1` (centres unmarked) [Example 288], the EC50 in assay [1] amounted to 85 nM. Besides, the IC50 in assay [2] was 299 nM.
On to `O=C1c2c(O)c(=O)ccn2N(C2c3ccccc3CSc3ccccc32)CN1[C@@H]1CCN(CCO)C1` (some centres unmarked) [Example 290], for which the EC50 in assay [1] stood at 492 nM. The IC50 in assay [2] came to 67 nM.
For the compound `CN1CCCC(N2CN(C3c4ccccc4CSc4ccccc43)n3ccc(=O)c(O)c3C2=O)C1` (centres unmarked) [Example 293], the EC50 in assay [1] stood at 437 nM. For the same compound, in assay [2], the IC50 turned out to be 290 nM.
For `O=C1c2c(O)c(=O)ccn2N(C2c3ccccc3CSc3ccccc32)CN1CC(F)F` (centres unmarked) [Example 294], in that order: 18 nM and 35 nM.
Regarding `Cc1nnc(CN2CN(C3c4ccccc4CSc4ccccc43)n3ccc(=O)c(O)c3C2=O)o1` (centres unmarked) [Example 295], the EC50 in assay [1] was 334 nM. In addition, in assay [2], the IC50 amounted to 52 nM.
For the compound `COc1ccc(N2CN(C3c4ccccc4CSc4ccccc43)n3ccc(=O)c(O)c3C2=O)cc1` (centres unmarked) [Example 296], the EC50 in assay [1] came out at 397 nM. For the same compound, the IC50 in assay [2] amounted to 130 nM.
On to `COCCN1CN(C2c3ccccc3CSc3ccccc32)n2ccc(=O)c(O)c2C1=O` (centres unmarked) [Example 299], for which the EC50 in assay [1] amounted to 15 nM. For the same compound, the IC50 in assay [2] is 50 nM.
The corresponding values for `COCC(C)N1CN(C2c3ccccc3CSc3ccccc32)n2ccc(=O)c(O)c2C1=O` (centres unmarked) [Example 300] are 21 nM and 58 nM.
On to `O=C1c2c(O)c(=O)ccn2N(C2c3ccccc3CSc3ccccc32)CN1C1CC1` (centres unmarked) [Example 302], for which, in assay [1], the EC50 was determined as 14 nM. The IC50 in assay [2] came to 35 nM.
Take `O=C1c2c(O)c(=O)ccn2N(C2c3ccccc3CSc3ccccc32)CN1CCF` (centres unmarked) [Example 304]: in assay [1], the EC50 was found to be 15 nM. Further, in assay [2], the IC50 turned out to be 18 nM.
As to `Cc1cc(CN2CN(C3c4ccccc4CSc4ccccc43)n3ccc(=O)c(O)c3C2=O)no1` (centres unmarked) [Example 305], in assay [1], the EC50 turned out to be 103 nM. Also, the half-inhibitory concentration (IC50) in assay [2] amounted to 59 nM.
Take `O=C1c2c(O)c(=O)ccn2N(C2c3ccccc3CSc3ccccc32)CN1Cc1ccccn1` (centres unmarked) [Example 307]: the EC50 in assay [1] was found to be 95 nM. The IC50 in assay [2] worked out at 52 nM.
For `CC(C)(C)N1CN(C2c3ccccc3CSc3ccccc32)n2ccc(=O)c(O)c2C1=O` (centres unmarked) [Example 308], in that order: 19 nM and 72 nM.
Regarding `CCN1CN(C2c3ccccc3CSc3ccccc32)n2ccc(=O)c(O)c2C1=O` (centres unmarked) [Example 309], the EC50 in assay [1] worked out at 13 nM. Further, the IC50 in assay [2] was 40 nM.
As for `CS(=O)(=O)CCN1CN(C2c3ccccc3CSc3ccccc32)n2ccc(=O)c(O)c2C1=O` (centres unmarked) [Example 310], in assay [1], the EC50 was 522 nM. In assay [2], the IC50 came to 108 nM.
`COCCCN1CN(C2c3ccccc3CSc3ccccc32)n2ccc(=O)c(O)c2C1=O` (centres unmarked) [Example 311]: the EC50 in assay [1] amounted to 26 nM. The IC50 in assay [2] stood at 40 nM.
For `C[C@H](N1CN(C2c3ccccc3CSc3ccccc32)n2ccc(=O)c(O)c2C1=O)C(C)(C)C` (some centres unmarked) [Example 314], in that order: 26 nM and 149 nM.
As to `Cc1noc(CN2CN(C3c4ccccc4CSc4ccccc43)n3ccc(=O)c(O)c3C2=O)n1` (centres unmarked) [Example 315], in assay [1], the EC50 stood at 115 nM. Besides, the IC50 in assay [2] was determined as 57 nM.
For `O=C1c2c(O)c(=O)ccn2N(C2c3ccccc3CSc3ccccc32)CN1Cc1nccs1` (centres unmarked) [Example 316], in assay [1], the EC50 turned out to be 83 nM. The IC50 in assay [2] stood at 69 nM.
For `COC[C@H](C)N1CN(C2c3ccccc3CSc3ccccc32)n2ccc(=O)c(O)c2C1=O` (some centres unmarked) [Example 317], in that order: 17 nM and 48 nM.
With `C[C@@H](N1CN(C2c3ccccc3CSc3ccccc32)n2ccc(=O)c(O)c2C1=O)C(C)(C)C` (some centres unmarked) [Example 320], in assay [1], the EC50 stood at 11 nM. The IC50 in assay [2] is 45 nM.
In the case of `O=C1c2c(O)c(=O)ccn2N(C2c3ccccc3CSc3ccccc32)CN1C(CF)CF` (centres unmarked) [Example 322], in assay [1], the EC50 was 28 nM. In assay [2], the IC50 came to 113 nM.
The corresponding values for `O=C1c2c(O)c(=O)ccn2N(C2c3ccccc3CSc3ccccc32)CN1[C@@H]1C[C@@H]1F` (some centres unmarked) [Example 323] are 19 nM and 77 nM.
The corresponding values for `O=C1c2c(O)c(=O)ccn2N(C2c3ccccc3CSc3ccccc32)CN1C1CC(F)(F)C1` (centres unmarked) [Example 324] are 35 nM and 107 nM.
In the case of `CC(C)N1CN(C2c3ccccc3CSc3cc(Cl)ccc32)n2ccc(=O)c(O)c2C1=O` (centres unmarked) [Example 327], the EC50 in assay [1] came to 24 nM. Further, in assay [2], the IC50 was determined as 92 nM.
Regarding `CC(C)N1CN(C2c3ccccc3CSc3ccc(F)cc32)n2ccc(=O)c(O)c2C1=O` (centres unmarked) [Example 329], the EC50 in assay [1] is 23 nM. The IC50 in assay [2] came out at 58 nM.
For `CCN1CN(C2c3ccccc3CSc3c(Cl)cccc32)n2ccc(=O)c(O)c2C1=O` (centres unmarked) [Example 330], in that order: 19 nM and 26 nM.
As to `CN1CN(C2c3ccccc3CSc3ccc(Cl)cc32)n2ccc(=O)c(O)c2C1=O` (centres unmarked) [Example 331], the EC50 in assay [1] came to 335 nM. In assay [2], the half-maximal inhibitory concentration (IC50) came out at 45 nM.
Consider `COCCN1CN(C2c3ccccc3CSc3ccc(Cl)cc32)n2ccc(=O)c(O)c2C1=O` (centres unmarked) [Example 333], for which the EC50 in assay [1] turned out to be 425 nM. For the same compound, in assay [2], the IC50 was 21 nM.
With `COCCN1CN(C2c3ccccc3CSc3cc(Cl)ccc32)n2ccc(=O)c(O)c2C1=O` (centres unmarked) [Example 334], in assay [1], the EC50 is 32 nM. Moreover, in assay [2], the IC50 worked out at 75 nM.
For `COCCN1CN(C2c3ccccc3CSc3c(Cl)cccc32)n2ccc(=O)c(O)c2C1=O` (centres unmarked) [Example 335], in that order: 16 nM and 19 nM.

These data come from patent US9815835B2, “Substituted polycyclic carbamolypyridone derivative” (priority 2009, dated 2017).
